# Values of other authors as cited in patent publication US12144787B2, “Method of treating patients with a mutation in cyclin-dependent kinase-like 5 (CDKL5)” (ZOGENIX INTERNATIONAL LIMITED, priority 2019, dated 2024).
# What was measured:
# [1] = test system: self-induced photosensitive seizures; conditions: four cases; patients staring into bright lights or the sun
# [2] = test system: compulsive respiratory stereotypies; conditions: open label, 8 children; subset of patients
# [3] = test system: pattern sensitivity-induced seizures; conditions: one child, seizures resistant to anticonvulsive treatment
# [4] = test system: refractory epilepsy with self-induced seizures; conditions: children with refractory epilepsy; dose 0.5 to 1 mg/kg/day
smiles,measurement,setting,value
"CCNC(C)Cc1cccc(C(F)(F)F)c1 (racemic) [fenfluramine, (RS)—N-ethyl-1-[3-(trifluoromethyl)phenyl]propan-2-amine]",response of self-induced photosensitive seizures to treatment,[1],responded to treatment
same,effect on compulsive respiratory stereotypies,[2],some beneficial effects
same,effect on self-induced seizures,[3],successfully terminated these self-induced seizures
same,number of seizures experienced by the patients,[4],reduction in the number of seizures
